Results as given in patent US20190192527A1, “COMPOSITIONS COMPRISING PIKFYVE INHIBITORS AND METHODS RELATED TO INHIBITION OF RANK SIGNALING” (AI Therapeutics, Inc., priority 2016, published 2019).

What was measured:
CYP3A4, CYP1A2, CYP2D6 = assay: reaction phenotyping studies; format: in vitro ADME
Experimental: (§1) In embodiments, the apilimod for use in the compositions and methods of the invention is the free base or dimesylate salt form, MW 610.7 (dimesylate salt); tPSA 83.1; pKa 5.39 (±0.03), 4.54 (±0.27); HBD 1. […] In embodiments, an active metabolite of apilimod may be used. […] Tmax generally occurred within 1 or 2 hours after the oral dose, consistent with the rapid […] of this compound from the circulation. […] The primary metabolites are short-lived in circulation. Both apilimod free base and the dimesylate salt are highly bound ([…]) to rat, dog and human plasma proteins.

RAW264.7 macrophages = assay: RANKL-induced differentiation of TRAP positive osteoclasts from RAW264.7 macrophages; format: cell-based
Experimental: RAW264.7 macrophages were differentiated with either vehicle or 30 ng/mL RANKL for a total of 5 days. For the last 3 days of differentiation, cells were co-treated with the indicated concentration of apilimod. Cells were subsequently stained for TRAP. Arrows highlight giant TRAP positive, multinucleated osteoclasts.
FIGS. 4A-4B: Inhibition of RANKL-induced differentiation of RAW264.7-derived osteoclasts by apilimod as indicated by a reduction in the number of TRAP-positive multinucleated cells (A) or giant osteoclasts (B). The average of triplicate wells was determined and percentages relative to untreated are shown.
(§2) Apilimod blocked the expression of RANK receptor and the transcription factors MITF, PU.1 and c-Fos in both undifferentiated and RANKL-differentiated RAW264.7 macrophages. Cells were differentiated for a total of 3 days with 30 ng/mL RANKL. On the last day of differentiation cells were co-treated with RANKL and the indicated concentration of apilimod or vehicle for 24h. […] (see FIGS. 5A-5B).

MPC-11 tumor cells = assay: systemic MPC-11 syngeneic model of multiple myeloma; format: in vivo, mouse
Excerpt: To determine if apilimod inhibition of RANKL/RANK signaling blocks the bone growth of multiple myeloma cells in vivo, the systemic MPC-11 syngeneic model was used (Laskov R et al. J Exp Med. 1970 131(3):515-41; Ferguson V L et al. Bone. 2002 30(1): 109-116). In this model, animals develop hind limb paralysis due to infiltration of multiple myeloma cells into the vertebrae that compresses the spinal column. In brief, MPC-11 tumor cells were maintained in vitro in DMEM medium supplemented with 10% horse serum at 37° C. in 5% CO2. Each mouse was then injected via the tail vein with MPC-11 tumor cells (1×10^6) in 0.1 ml of PBS for tumor development. The regimen of dosing is detailed in Table 1. At 4 days post-tumor inoculation, mice were orally administered with a vehicle or apilimod dimesylate (70 mg/kg) twice a day up to 35 days. Survival rate of vehicle-treated animal group (n=10) and apilimod-treated animal group (n=10) were monitored as an indicator of hind limb paralysis.
To directly examine the effect of apilimod on the MPC-11 tumor burden in bone, immunohistochemical staining was performed. Femurs from the in vivo experiment were fixed in 10% formalin and then rinsed in 70% ethanol and dehydrated in acetone before embedding in methacrylate. 4 μm sections were then stained in 2% Toluidine blue. […] Orange boxed region on left panel is shown at 40× magnification in the right panel. Note total effacement of bone marrow architecture and replacement with MPC-11 tumor cells in top panel. […] This effect was quantitated by generating paraffin sections from tibias of the animals and staining the sections with the multiple myeloma marker CD138 (BioLegend antibody, Clone 281-2). Values for CD138 positive staining were obtained by measuring within in a pre-defined Region of Interest (ROI) defined as 1.17 millimeter square, 200 micrometer below the tibia proximal growth plate. CD138 positive staining was measured according to standard protocols (Dempster D W et al. J Clin Endocrinol Metab. 2012 97(8):2799-2808).

Cathepsin K = Cathepsin K maturation, western blot in RAW 264.7-derived osteoclasts; format: cell-based; conditions: differentiated with 30 ng/ml RANKL 4 days, then RANKL and apilimod 24 hours
Experimental: RAW264.7 macrophages were differentiated with 30 ng/ml RANKL for 4 days and subsequently treated with RANKL and the indicated concentration of apilimod for 24 hours prior to harvesting lysates and performing western blot for the indicated protein.

[1] = test system: periodontal bone resorption; assay: rat periodontal disease model; format: in vivo
Experimental: FIGS. 6A-6B: Graphical representation of the effect of apilimod on periodontal bone resorption (A). Daily oral doses of apilimod (8 and 20 mg/kg) reduce bone loss (B).
Moreover, apilimod was active in inhibiting in vivo osteoclast activity in a rat periodontal disease model (see FIGS. 6A-6B). In brief, Th-1 type clonal cells specific for Actinobacillus actinomycetemcomitans (Aa) 29-kDa outer membrane protein (Omp29) were activated by incubation with formalin-killed Aa and irradiated syngeneic rat spleen cells. These activated cells were then transferred intravenously through the rat tail vein (1.0×10^7 cells) into the rat. On the same day, the antigen Omp29 was injected with LPS into the left palatal maxilla gingiva; and saline was injected into the right palatal maxilla gingiva, for control measurements. Apilimod was given orally in daily doses of 8 and 20 mg/kg from the day of the induction until day 10. At the end of the ten day period, animals were sacrificed and their jaws were defleshed to allow the assessment of periodontal bone resorption, calculated as the ratio of the difference in cemento-enamel junction (CEJ-AL) distance between left and right sides versus CEJ-AL distance of right.

osteoclast formation = conditions: in vitro assay, described in WO 2005/000404; read-out: IC50, inhibitory activity against osteoclast formation; cited from earlier work
pKa = format: physicochemical
[2] = test system: RANK, c-Fos, MITF, PU.1, TRAF6, OPG; assay: RNA expression of osteogenic factors by quantitative PCR in RAW264.7 macrophages; format: cell-based; conditions: undifferentiated and RANKL-differentiated (30 ng/mL, 3 days) cells, apilimod 24h
Excerpt: FIG. 5A-5B: Effect of apilimod treatment on the RNA expression of osteogenic factors RANK, c-Fos, microphthalmia-associated transcription factor (MITF), PU.1, TNF receptor associated factor 6 (TRAF6) and osteoprotegerin (OPG) in undifferentiated (A) or differentiated (B) RAW264.7 macrophages as assessed by quantitative PCR.
as §2

WSU-DLCL2B cell lymphoma = assay: viability (CellTiter Glo) of CRISPR guide RNA cell pools treated with apilimod; format: cell-based; conditions: treated for 3 days
Experimental: Pools cells containing guide RNAs targeted against either the indicated genes or non-targeting (NT) guide RNAs were treated with apilimod for 3 days and viability was assayed by CellTiter Glo (Promega).
A genome-wide CRISPR screen for factors conferring resistance of B-cell lymphoma to apilimod uncovered the lysosomal regulator TFEB as well as the lysosomal and osteopetrosis-associated genes CLCN7, OSTM1, and SNX10 as mediators of apilimod-induced cytotoxicity (see FIGS. 1A-1D).

[3] = microsomal and hepatocyte stability studies, metabolite identification; format: in vitro ADME; conditions: rat and human microsomal and hepatocyte stability studies
Experimental: as §1

[4] = RANKL-induced differentiation, relative to untreated
[5] = tibia sections, ROI 1.17 millimeter square, n = 5, apilimod dimesylate 70 mg/kg p.o. BID

## Cc1cccc(/C=N/Nc2cc(N3CCOCC3)nc(OCCc3ccccn3)n2)c1 [apilimod]
CYP3A4, CYP1A2, CYP2D6
  enzymes that contribute to metabolism: CYP3A4 and to a lesser extent CYP1A2 and/or CYP2D6
RAW264.7 macrophages; 30 ng/mL RANKL 5 days, apilimod for the last 3 days, TRAP staining
  RANKL-stimulated osteoclastogenesis: potently blocked
RAW264.7 macrophages; [4]
  number of TRAP-positive multinucleated cells: reduction
  number of giant osteoclasts: reduction
MPC-11 tumor cells; apilimod dimesylate 70 mg/kg p.o. BID
  invasion of myeloma cells in femur marrow, toluidine blue staining, qualitative: minimal invasion
MPC-11 tumor cells; apilimod dimesylate 70 mg/kg p.o. twice a day up to 35 days, n=10
  animals with hind limb paralysis: none
MPC-11 tumor cells; [5]
  Tumor Area, CD138 staining: 0.012 ± 0.03 mm^2
  Tumor Area/ Tissue Area, CD138 staining: 0.010 ± 0.02%
Cathepsin K
  cathepsin K processing (maturation): inhibition of cathepsin K processing
[1]; 8 mg/kg orally daily until day 10
  protection against Th1-mediated bone loss (periodontal bone resorption): significant protection
[1]; 20 mg/kg orally daily until day 10
  protection against Th1-mediated bone loss (periodontal bone resorption): significant protection
Osteoclast formation
  IC50: 15 nM
pKa
  pKa: 5.39
[2]
  RNA expression of RANK, c-Fos, MITF, and PU.1: Decreases were observed
  RNA expression of TRAF6 or OPG: Significant decreases were not observed
WSU-DLCL2B cell lymphoma
  effect of CRISPR-induced loss of CLCN7, OSTM1, SNX10, TFEB on viability under apilimod: confer resistance to apilimod
[3]
  primary metabolites identified: Six primary metabolites
